Laboratory results reported in patent US9168268B1, “Saponins and chromans derivatives mixture compositions against leishmaniasis, Trypanosomiasis americana, malaria, Trypanosomiasis africana and Fasciola hepatica” (UNIVERSIDAD DE ANTIOQUIA, priority 2013, dated 2015).

Test system: L. amazonensis
Test: In vivo therapeutic response of hamsters experimentally infected with L. amazonensis (hamster model for cutaneous leishmaniasis)
Conditions: for cure rate: hamster model for cutaneous leishmaniasis, L. amazonensis, outcome at end of study (3 months after the end of treatment); for lesion size compared between treatment groups: hamsters infected with L. amazonensis, from the second month after the end of treatment to the end of the study; for activity against Leishmania parasites: leishmanicidal activity as shown in FIG. 4 and FIG. 5
Procedure: The formulation has been tested in vitro and in vivo for their leishmaninicidal activity.
A. TC1 (1.13 mg), B TC1 (4.01%), C: TC2 (1.35 mg), D: TC2 (3.0%), E: TC3 (1.72 mg), F: TC4 (1.25 mg), G: TC4 (4.03%), H: TC18 (3.0%), I: Mixture 1A, 2A, 3A (4.14%), J: Mixture 1A, 2A, 3A (7.77%), K: meglumina antimoniate (1209 mg), L: Vehicle (100 μl) and M: Vehicle (40 mg).
A. TC1 (1.13 mg), B TC1 (4.01%), C: TC2 (1.35 mg), D: TC2 (3.0%), E: TC3 (1.72 mg), F: TC4 (1.25 mg), G: TC4 (4.03%), H: TC18 (3.0%), I: Mixture 1A, 2A, 3A (4.14%), J: Mixture 1A, 2A, 3A (7.77%), K: meglumina antimoniate (1209 mg), L: Vehicle (100 μl) and M: Vehicle (40 mg). BoT: Beginning of Treatment; EoT: End of treatment. 1mAEoT: 1 month after the end of treatment, 2mAEoT: 2 months after the end of treatment, 3mAEoT: 3 months after the end of treatment. […] The efficacy may be increased using other dose or therapeutic schemes.

`O=C(N/N=C1\CCSc2ccccc21)c1ccccc1` [TC1, Benzoic acid, 2-(2,3-dihydro-4H-1-benzothiopyran-4-ylidene)hydrazide] was tested, and the cure rate was 77%, the “lesion size compared between treatment groups” value was “lowest lesion size” and the “activity against Leishmania parasites” value was “exhibited activity”.

`O=C(N/N=C1\CCSc2ccccc21)c1ccncc1` [TC2, 4-Pyridinecarboxylic acid, 2-(2,3-dihydro-4H-1-benzothiopyran-4-ylidene)hydrazid] was tested, and the “lesion size compared between treatment groups” value was “lowest lesion size” and the “activity against Leishmania parasites” value was “exhibited activity”.

`O=C1CCS(=O)(=O)c2ccccc21` [TC18, Thiochroman-4-one, 1,1-dioxide] was tested, and the cure rate was 63% and the “activity against Leishmania parasites” value was “exhibited activity”.
